Assay results published in paper PMC9705864, “SCO6992, a Protein with β-Glucuronidase Activity, Complements a Mutation at the absR Locus and Promotes Antibiotic Biosynthesis in Streptomyces coelicolor” (Journal of Microbiology and Biotechnology, 2021).

Columns and labels:
[1] = target: T1, MBP-SCO6992 (rSCO6992; ORF-1; absR1) (Streptomyces coelicolor, UniProt Q7AKD9); experiment: p-nitrophenol release, absorbance at […] nm; type: biochemical; details: 1.67 mM substrate, 83 mM acetate pH 4.5, 37°C, 1 h; without added Zn2+
T1 construct: N-terminal MBP fusion (pMAL-c2x) kept, about 82 kDa; E. coli JM109
T1 sequence (Q7AKD9 1-359): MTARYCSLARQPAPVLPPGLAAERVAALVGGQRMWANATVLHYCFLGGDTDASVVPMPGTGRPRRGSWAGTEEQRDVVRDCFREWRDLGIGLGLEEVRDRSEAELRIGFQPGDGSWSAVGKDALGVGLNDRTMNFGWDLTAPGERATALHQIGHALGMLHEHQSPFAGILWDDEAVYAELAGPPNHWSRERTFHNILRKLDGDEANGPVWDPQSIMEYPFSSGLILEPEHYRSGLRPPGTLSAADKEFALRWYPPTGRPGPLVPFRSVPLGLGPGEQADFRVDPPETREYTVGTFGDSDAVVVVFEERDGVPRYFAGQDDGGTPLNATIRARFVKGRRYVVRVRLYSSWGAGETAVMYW

[2] = target: T1, MBP-SCO6992 (rSCO6992; ORF-1; absR1); experiment: native PAGE zymogram with Fast Garnet; type: biochemical; details: 0.2 M sodium acetate pH 5.2

| SMILES | p-nitrophenol release, absorbance at 415 nm [1] | native PAGE zymogram with Fast Garnet [2] |
| --- | --- | --- |
| O=C(O)[C@H]1O[C@@H](Oc2ccc([N+](=O)[O-])cc2)[C@H](O)[C@@H](O)[C@@H]1O [p-nitrophenyl-β-D-glucuronide] | when measuring β-glucuronidase activity using p-nitrophenyl-β-D-glucuronide as substrate, a strong activity was detected | – |
| COc1ccccc1NC(=O)c1cc2cc(Br)ccc2cc1O[C@@H]1O[C@H](C(=O)O)[C@@H](O)[C@H](O)[C@H]1O [naphthol AS-BI-β-D-glucuronide] | – | purified MBP-SCO6992 protein had β-glucuronidase activity on an artificial substrate such as AS-BI-β-D-glucuronide |
